According to paper PMC10197068 (Bioconjugate Chemistry, 2023):
Where “and” joins values, the source holds several entries; their conditions need not be identical. Equal entries are not always repeated.

Experiments:
[1] = test system: G2T1 (K+) dimeric HTelo G4 DNA; test: Emission titration with G2T1 (K+); assay type: binding, human; conditions: Table S2, unit not given, ligand 2 μM, 100 mM KCl, 10 mM Li cacodylate, pH 7.3, exc 440 nm, em 590 nm, triplicate
Procedure: (§1) Next, emission titrations were carried out with the emissive Pt^II compounds M2 and D3–8 and G4/duplex DNA to obtain association constants. Both Na^+ and K^+ stabilized monomeric and dimeric G4 DNA were investigated. Additionally, titrations were carried out with CT-DNA to evaluate the selectivity for G4 versus duplex DNA. Figure 5 summarizes the obtained results (see Figures S24–S37 and Table S2 for a full set of titration data). First discussed are the experiments conducted in Na^+ buffer, in which the G4 topology formed is antiparallel.[41] […] As discussed previously, this could potentially be caused by a “sandwiched” binding mode in which the metal-salphen complex sits between two G-quadruplex units. For dimeric metal-salphen complexes D3–8, however, there are several differences when compared to the CD melting studies. […] Upon increasing the linker length to a two-amino-acid sequence (RR and KK for compounds D4 and D5, respectively), larger Ka values were obtained with minimal change to the pattern of selectivity. […] Increasing the linker length to an eight-amino-acid sequence (RRRRRRRR) led to a similar stabilization of G2T6, while G1 stabilization increased.
(§2) G-Quadruplex oligonucleotides were purchased from Eurogentec (Belgium), and CT-DNA was purchased from Sigma-Aldrich. Stock solutions were prepared via dilution in the appropriate buffers to concentrations of 300–400 μM determined by UV–vis measurements in which increasing amounts of DNA were added to a cuvette and the absorbance at 260 nm recorded using an Agilent Cary UV 60 spectrometer. Prior to use, the DNA stock solutions were annealed by heating at 95 °C for 5 min and then cooling to room temperature overnight.
(§3) Experiments were carried out using a BMG Clariostar Microplate reader with Greiner Bio-One half-volume (100 μL/well) plates. Excitation was carried out at 440 nm and recorded from 500 to 700 nm in addition to a matrix scan at 590 nm. Titrations were carried out using G1, G2T1, and G2T6 (Na^+) G4 DNA (100 mM NaCl, 10 mM Li cacodylate, pH 7.3); G1, G2T1, and G2T6 (K^+) G4 DNA (100 mM KCl, 10 mM Li cacodylate, pH 7.3); and CT-DNA (100 mM KCl, 10 mM Li cacodylate, pH 7.3). Ligand concentration was kept constant at 2 μM, and the following DNA equivalents were tested: 0, 0.1, 0.2, 0.3, 0.4, 0.5, 0.75, 1, 1.5, 2, 3, and 5 (for CT-DNA 10× base pair equivalents were used, i.e., 1 to 50 BPE). Sample preparation was carried out by preparing stock solutions of double concentration ligand (4 μM) and DNA in the appropriate buffer, before 50 μL of each was added to the appropriate well and mixed. Experiments were conducted in triplicate and binding constants were obtained by curve fitting in Graphpad Prism 8 using eq 1.[46] [drawing 1] 1
(§4) Fluorescence response (y) was fitted against DNA concentration (x); R is the machine response, K is the association constant of ligand and DNA, L is the concentration of ligand, and n is the number of binding sites per DNA. The values of L and n were varied so that that the L was equal to the number of salphen units and n was equal to the number of G4 faces per DNA. The matrix scan results were used to plot the titration curves and 500–700 nm scan results were used to confirm that expected curve shapes and shifts were observed.

[2] = test system: G2T1 (Na+) dimeric HTelo G4 DNA; test: Emission titration with G2T1 (Na+); assay type: binding, human; conditions: Table S2, unit not given, ligand 2 μM, 100 mM NaCl, 10 mM Li cacodylate, pH 7.3, exc 440 nm, em 590 nm, triplicate
Procedure: as §1, §2, §3, §4

[3] = test system: G1 (K+) monomeric HTelo G4 DNA; test: Emission titration with G1 (K+); assay type: binding, human; conditions: Table S2, unit not given, ligand 2 μM, 100 mM KCl, 10 mM Li cacodylate, pH 7.3, exc 440 nm, em 590 nm, triplicate
Procedure: as §1, §2, §3, §4

[4] = test system: G2T6 (K+) dimeric HTelo G4 DNA; test: Emission titration with G2T6 (K+); assay type: binding, human; conditions: Table S2, unit not given, ligand 2 μM, 100 mM KCl, 10 mM Li cacodylate, pH 7.3, exc 440 nm, em 590 nm, triplicate
Procedure: as §1, §2, §3, §4

[5] = test system: G2T1 (Na+) dimeric HTelo G4 DNA, AGGG(TTAGGG)7; test: CD melting with G2T1 (Na+); assay type: binding, human; conditions: CD melting at 295 nm, 25 to 95 °C at 2 °C/min; 100 mM NaCl, 10 mM Li cacodylate, pH 7.3; [G4 unit] 6 μM (3 μM dimeric sequence), [salphen unit] 12 μM
Procedure: (§5) Next, the DNA binding properties of the monomeric and dimeric compounds were studied. […] The following notation is used: […] The CD melting experiments were conducted solely with Na^+ stabilized DNA, which forms an antiparallel topology in solution (cf., in the presence of K^+ a mixture of topologies is observed). During the assay the temperature was increased from 25 to 95 °C upon which the intensity of signals with negative ellipticity at ca. 265 nm and positive ellipticity at ca. 295 (characteristic of an antiparallel G4 structure) decreased-see Figure 4a. This indicates the expected unfolding of the G4 DNA structure as the temperature increases. The changes in intensity were subsequently used to produce the corresponding melting curves (Figure 4b) for each sequence in the absence and presence of the different compounds under study. From these curves, the ΔTm values for the different sequences and compounds were determined, and the results are summarized in Figure 4c (see Supplementary Table 1 for values). […] G-Quadruplex oligonucleotides were purchased from Eurogentec (Belgium), and CT-DNA was purchased from Sigma-Aldrich. […] Prior to use, the DNA stock solutions were annealed by heating at 95 °C for 5 min and then cooling to room temperature overnight. Experiments were carried out on a Jasco J-810 spectrophotometer using a 1 cm quartz cuvette. Temperature was controlled using a Peltier module. The signal at 295 nm was monitored as temperature was increased for 25 to 95 °C at a rate of 2 °C/min. CD melting experiments were carried out with the appropriate G4 DNA (100 mM NaCl, 10 mM Li cacodylate, pH 7.3). Sample preparation was carried out by combining stock solutions of ligand and DNA in the appropriate buffer. […] Melting temperatures were obtained by curve fitting in Graphpad Prism 8. The data was normalized and fitted to a variable slope Hill equation, and the melting temperature was defined at the temperature at which y = 0.5.

[6] = test system: G2T6 (Na+) dimeric HTelo G4 DNA, AGGG(TTAGGG)3(TTA)5(TTAGGG)4; test: CD melting with G2T6 (Na+); assay type: binding, human; conditions: CD melting at 295 nm, 25 to 95 °C at 2 °C/min; 100 mM NaCl, 10 mM Li cacodylate, pH 7.3; [G4 unit] 6 μM (3 μM dimeric sequence), [salphen unit] 12 μM
Procedure: as §5

[7] = test system: G1 (Na+) monomeric HTelo G4 DNA; test: Emission titration with G1 (Na+); assay type: binding, human; conditions: Table S2, unit not given, ligand 2 μM, 100 mM NaCl, 10 mM Li cacodylate, pH 7.3, exc 440 nm, em 590 nm, triplicate
Procedure: as §1, §2, §3, §4

[8] = test system: G1 (Na+) monomeric HTelo G4 DNA, AGGG(TTAGGG)3; test: CD melting with G1 (Na+); assay type: binding, human; conditions: CD melting at 295 nm, 25 to 95 °C at 2 °C/min; 100 mM NaCl, 10 mM Li cacodylate, pH 7.3; [G4 unit] 6 μM, [salphen unit] 12 μM
Procedure: as §5

[9] = test system: G2T6 (Na+) dimeric HTelo G4 DNA; test: Emission titration with G2T6 (Na+); assay type: binding, human; conditions: Table S2, unit not given, ligand 2 μM, 100 mM NaCl, 10 mM Li cacodylate, pH 7.3, exc 440 nm, em 590 nm, triplicate
Procedure: as §1, §2, §3, §4

CT-DNA (duplex DNA) = test: Emission titration with duplex DNA; assay type: binding; conditions: for Ka for duplex DNA: CT-DNA up to 50 base pair equivalents, 100 mM KCl, 10 mM Li cacodylate, pH 7.3, ligand 2 μM
Procedure: Next, emission titrations were carried out with the emissive Pt^II compounds M2 and D3–8 and G4/duplex DNA to obtain association constants. Both Na^+ and K^+ stabilized monomeric and dimeric G4 DNA were investigated. Additionally, titrations were carried out with CT-DNA to evaluate the selectivity for G4 versus duplex DNA. Figure 5 summarizes the obtained results (see Figures S24–S37 and Table S2 for a full set of titration data). First discussed are the experiments conducted in Na^+ buffer, in which the G4 topology formed is antiparallel.[41] […] As discussed previously, this could potentially be caused by a “sandwiched” binding mode in which the metal-salphen complex sits between two G-quadruplex units. For dimeric metal-salphen complexes D3–8, however, there are several differences when compared to the CD melting studies. […] Upon increasing the linker length to a two-amino-acid sequence (RR and KK for compounds D4 and D5, respectively), larger Ka values were obtained with minimal change to the pattern of selectivity. […] Increasing the linker length to an eight-amino-acid sequence (RRRRRRRR) led to a similar stabilization of G2T6, while G1 stabilization increased. […]
as §2, with “Prior to use, the DNA stock solutions were annealed by heating at 95 °C for 5 min and then cooling to room temperature overnight.” left out
Experiments were carried out using a BMG Clariostar Microplate reader with Greiner Bio-One half-volume (100 μL/well) plates. Excitation was carried out at 440 nm and recorded from 500 to 700 nm in addition to a matrix scan at 590 nm. […]
Fluorescence response (y) was fitted against DNA concentration (x); R is the machine response, K is the association constant of ligand and DNA, L is the concentration of ligand, and n is the number of binding sites per DNA. […]

[10] = test system: G2T1 (DNA, G4) AGGGTTAGGGTTAGGGTTAGGGTTAGGGTTAGGGTTAGGGTTAGGG; test: CD melting at 295 nm; conditions: 100 mM NaCl, 10 mM Li cacodylate, pH 7.3, 3 μM DNA
[11] = test system: G2T6 (DNA, G4) AGGGTTAGGGTTAGGGTTAGGGTTATTATTATTATTATTAGGGTTAGGGTTAGGGTTAGGG; test: CD melting at 295 nm; conditions: 100 mM NaCl; 10 mM Li cacodylate, pH 7.3; 12 μM compound, 3 μM DNA

RRRR [Compound D6]
Association constant G2T1 (K+), mean [1]: 0.18 | Association constant G2T1 (Na+), mean [2]: 0.29 | Association constant G1 (K+), mean [3]: 0.28 | Association constant G2T6 (K+), mean [4]: 0.52 | ΔTm G2T1 (Na+) [5]: 14.83 °C | ΔTm G2T6 (Na+) [6]: 13.27 °C | Association constant G1 (Na+), mean [7]: 0.07 | ΔTm G1 (Na+) [8]: 3.49 °C | Association constant G2T6 (Na+), mean [9]: 0.99

C[N+](C)(C)CCOc1ccc2c(c1)[O][Pt][O]c1cc(OCC[N+](C)(C)C)ccc1C=Nc1ccccc1N=C2 [Compound M2, reference compound]
Association constant G2T1 (K+), mean [1]: 0.80 | Ka for duplex DNA (CT-DNA (duplex DNA)): 7.31 × 10^4 M^–1 | Association constant G2T1 (Na+), mean [2]: 1.70 | Association constant G1 (K+), mean [3]: 2.00 | Association constant G2T6 (K+), mean [4]: 1.44 | ΔTm G2T1 (Na+) [5]: 21.67 °C and 21 °C | ΔTm G2T6 (Na+) [6]: 19.55 °C and 19 °C | Association constant G1 (Na+), mean [7]: 1.70 | ΔTm G1 (Na+) [8]: 12.72 °C | Association constant G2T6 (Na+), mean [9]: 2.93

C[N+](C)(C)CCOc1ccc(C=Nc2ccc(C(=O)NCc3cn(CC(=O)N[C@@H](CCCNC(=N)N)C(=O)N[C@@H](CCCNC(=N)N)C(=O)N[C@@H](Cn4cc(CNC(=O)c5ccc(N=Cc6ccc(OCC[N+](C)(C)C)cc6[O-])c(N=Cc6ccc(OCC[N+](C)(C)C)cc6[O-])c5)nn4)C(N)=O)nn3)cc2N=Cc2ccc(OCC[N+](C)(C)C)cc2[O-])c([O-])c1.[Pt+2].[Pt+2]
ΔTm ([10]; 6 μM compound (12 μM salphen units)): 14.6 °C

C[N+](C)(C)CCOc1ccc(C=Nc2ccccc2N=Cc2ccc(OCC[N+](C)(C)C)cc2[O-])c([O-])c1.[Ni+2]
ΔTm ([10]; 12 μM compound): 16 °C | ΔTm [11]: 17 °C

C[N+](C)(C)CCOc1ccc2c(c1)[O][Pt][O]c1cc(OCC[N+](C)(C)C)ccc1C=Nc1cc(C(=O)NCc3cn(CCOCCn4cc(CNC(=O)c5ccc6c(c5)N=Cc5ccc(OCC[N+](C)(C)C)cc5[O][Pt][O]c5cc(OCC[N+](C)(C)C)ccc5C=N6)nn4)nn3)ccc1N=C2 [Compound D3]
Association constant G2T1 (K+), mean [1]: 0.13 | Ka for duplex DNA (CT-DNA (duplex DNA)): 5.0 × 10^3 M^–1 | fold reduction in duplex DNA binding (CT-DNA (duplex DNA); compared with monomeric complex M2): 10 fold | Association constant G2T1 (Na+), mean [2]: 0.24 | Association constant G1 (K+), mean [3]: 0.17 | Association constant G2T6 (K+), mean [4]: 0.16 | ΔTm G2T1 (Na+) [5]: 15.29 °C | ΔTm G2T6 (Na+) [6]: 6.43 °C and 6.4 °C | Association constant G1 (Na+), mean [7]: 0.17 | ΔTm G1 (Na+) [8]: 3.02 °C and 3.0 °C | Association constant G2T6 (Na+), mean [9]: 0.19
